Experimental data from patent US20150285805A1, “BIOMARKERS OF MULTIPLE MYELOMA DEVELOPMENT AND PROGRESSION” (priority 2012, published 2015).

Tests used:
[1] = cited from earlier work
[2] = tested on: microvascular endothelial cell; conditions: in vitro; cited from earlier work
T cells = conditions: cited from earlier work
MM cells = conditions: phosphocholine administration; cited from earlier work
OPM2 cells = assay: MTT assay upon LPC supplementation; type: cell-based; conditions: 10 μM LPC, 72 h, with or without FCS; particularly upon serum starvation
Description: (§1) FIG. 5. Effects of LPC supplementation on MM cells viability. A) Viability of myeloma cell lines MM.1S or OPM2 or three samples of myeloma patient-derived CD138 positive cells upon 24 h incubation with vehicle or 10 μM LPC, as fold change of annexinV-propidium iodide double negative cells relative to vehicle alone. B) MTT assay of OPM2 cells upon 72 h supplementation with LPC, one representative experiment (n=6). Y axis: median 570-655 optic density (O.D.); error bars: standard deviation; asterisks: p<0.05 at two-tailed t-test for paired samples.
(§2) Myeloma cell lines (OPM2 and MM.1S) were cultured in RPMI1640 media (Gibco), supplemented with glutamax (1 mM), penicillin (100 U/ml), and streptomycin (100 μg/ml). Primary MM cells were obtained by CD138 positive immunomagnetic selection (Miltenyi) from bone marrow mononuclear cells. CD138^+ cells were cultured in 10% FBS and IL-6 (2 ng/ml). Apoptosis was detected by AnnexinV-PI (BD) cytometry (AccuriC6 cytometer, analyzed with FCS-express). For MTT assays, OPM2 cells were cultured with or without 10 μM LPC and FCS, incubated with 5 mg/ml MTT (Sigma), dissolved with DMSO and measured for ABS at 570-655 nm with an ELISA reader (Biorad).

MM.1S myeloma cell line = assay: AnnexinV-PI cytometry, apoptosis/viability upon LPC supplementation; type: cell-based; conditions: 10 μM LPC, 24 h, vs vehicle
Description: as §1, §2

[3] = tested on: myeloma patient-derived CD138 positive cells; assay: as above; type: cell-based; conditions: 10 μM LPC, 24 h, vs vehicle; three patient samples
Description: as §1, §2

OPM2 myeloma cell line = assay: as above; type: cell-based; conditions: 10 μM LPC, 24 h, vs vehicle
Description: as §1, §2

Compound: CNCC(=O)O [Sarcosine, Sarcosine (N-Methylglycine)]
- cancer-promoting in vitro activities [1]: induction of migration, invasiveness, and up-regulation of pathogenic receptors

Compound: C3f: fragment of the C3 complement factor, sequence SSKITHRIHWESASLLR; detected fragment HWESASLL (listed as Homo sapiens)
- IGF1 signaling and microvascular endothelial cell proliferation [2]: actively modulate
- TGFβ-1 secretion by endothelial cells [2]: enhance TGFβ-1 secretion

Compound: Nc1c(O)cccc1C(=O)CC(N)C(=O)O (stereo not shown) [3-hydroxykynurenine]
- T cell depletion (T cells; in vitro and in vivo, transplanted mice): depleting in vitro and in vivo T cells
- mismatched allograft tolerance (T cells; mouse, in vivo): promoting mismatched allograft tolerance

Compound: C[N+](C)(C)CCOP(=O)([O-])O [phosphocholine]
- rescue of MM cells from the mevalonate pathway inhibitor apomine (MM cells): can rescue MM cells

Compound: lysophosphocholines [LPC]
- viability (MTT, 570-655 O.D.) (OPM2 cells): increase viability
- apoptosis (annexinV-propidium iodide) (MM.1S myeloma cell line): decrease apoptosis
- apoptosis (annexinV-propidium iodide) [3]: decrease apoptosis
- apoptosis (annexinV-propidium iodide) (OPM2 myeloma cell line): decrease apoptosis
